Data from US10501499B2 (priority 2012, dated 2019).

Tests used:
[1] = tested on: human PBMCs; assay type: cell-based
[2] = tested on: human PBMCs; assay type: cell-based; remark: listed apart in the source

Row | Sequence | Intracellular Uptake [1] | Extracellular Uptake [2]
1 | RGTANWARVISRANWAKVILRNWAKVI [BI330-83c] | 154.43 | 435.66
2 | RGYLPAVGAPIRRVIRVIAHGLRL [BI310-511g] | 66.74 | 171.31
3 | RGYLPAVGAPIRRRVIRVIAHGLRLR [BI310-511] | 22.62 | 227.46
4 | RRGYLPAVGAPIRRVIRVIAHGLRLR [BI310-511b] | 67.29 | 466.71
5 | RGYLPAVGAPIRRVIRVIAHGLRLR [BI310-511e] | 44.59 | 473.80
6 | RGYLPAVGAPIRVIRVIAHGLRLR [BI310-511f] | 26.85 | 178.61
7 | RRGYLPAVGAPIRRVIRVIAHGLRL [BI310-511d] | 70.64 | 267.15
8 | RRGTANWARVISRANWAKVILRNWAKVI [BI330-83] | 194.69 | 364.04
9 | RGTANWARVISRGANWAKVILRNWAKVI [BI330-83d] | 52.14 | 267.38
10 | RRGYLPAVGAPIRRRVIRVIAHGLRL [BI310-511c] | 31.83 | 203.62
11 | RGTANWARVISRRANWAKVILRNWAKVI [BI330-83b] | 120.10 | 518.60
